# Tests used:
# [1] = system: Aspergillus brasiliensis ATCC®16404; experiment: MIC, microdilution method adapted from DIN EN ISO 20776-1:2006; format: cell-based; conditions: pH <6.5; no growth after 24 h and 72 h
# Procedure: (§1) The antimicrobial activity of sodium perillate was examined in vitro using the microdilution method adapted from DIN EN ISO 20776-1:2006. R-Perillic acid and S-perillic acid were used as reference compounds. All experiments were done in 96-well plates in a final volume of 200 μL. Stock solutions of the investigated compounds were prepared in 25 mM buffer. The procedure was conducted as following: 4 μL of the particular stock solution were mixed with 196 μL culture medium containing a defined inoculum of the respective target strain. Sterile controls (not inoculated) and growth controls (buffer in-stead of compound added) were performed. All compound concentrations were tested in triplicate. The following strains were examined: Escherichia coli ATCC®8739, Pseudomonas aeruginosa ATCC®9027, Stapyhlococcus aureus ATCC®6538, Candida albicans ATCC®10231 and Aspergillus brasiliensis ATCC®16404. The following culture media were used: Mueller-Hinton II Bouillon (Escherichia coli, Pseudomonas aeruginosa and Staphylococcus aureus), yeast peptone dextrose (Candida albicans) and potato dextrose (Aspergillus brasiliensis). All culture media were buffered with 25 mM MES-buffer. For compound testing the plates were incubated at 37° C. (Escherichia coli, Pseudomonas aeruginosa and Staphylococcus aureus), at 28° C. (Candida albicans) and at 25° C. (Aspergillus brasiliensis). Plates were evaluated after 24 h and 72 h, respectively. The minimal inhibitory concentration is defined as the concentration where no microbial growth was observed after 24 h and 72 h incubation at the specified temperature.
# (§2) Table 1 Determination of the minimal inhibition concentration (MIC, % w/v) of sodium perillate against five classical spoiling organisms under acidic (pH<6.5) and alkaline (pH>7.5) conditions using the microdilution method adapted according to DIN EN ISO 20776-1:2006. The experiments were performed in micro-well plates in a final volume of 200 μL. MIC-values are given according to the following letter code. A>1% w/v, B=0.5-1% w/v, C=0.1-0.5% w/v. D<0.1% w/v.
# [2] = system: Candida albicans ATCC®10231; experiment: as above; format: cell-based; conditions: no growth after 24 h and 72 h
# Procedure: as §1, §2
# [3] = system: Escherichia coli ATCC®8739; experiment: as above; format: cell-based; conditions: no growth after 24 h and 72 h
# Procedure: as §1, §2
# [4] = system: Pseudomonas aeruginosa ATCC®9027; experiment: as above; format: cell-based; conditions: no growth after 24 h and 72 h
# Procedure: as §1, §2
# [5] = system: Staphylococcus aureus ATCC®6538; experiment: as above; format: cell-based; conditions: no growth after 24 h and 72 h
# Procedure: as §1, §2
# [6] = system: Aspergillus brasiliensis ATCC®16404; experiment: Conservation efficacy testing in cosmetic oil-water-emulsion; format: cell-based; conditions: O/W emulsion pH 5-6, room temperature
# Procedure: (§3) The conservation efficacy of sodium perillate in a final product was determined using two different formulations: • a) an oil-water-emulsion pH 5.5 (example for a cosmetic product), • b) a water-based glucose solution at pH 3.5 (example for a non-carbonated soft drink).
# (§4) Hereby, a defined inoculum of the test strains was added directly to the formulations. In order to examine product preservation by sodium perillate or perillic acid, the formulations were incubated at room temperature for 4 to 16 weeks, respectively. Samples were taken every 7 days and […] (cfu) were counted on agar plates.
# (§5) Among others the following strains were used to determine the efficacy of sodium peril-late in an oil-water emulsion: Escherichia coli ATCC®8739, Pseudomonas aeruginosa ATCC®9027, Stapyhlococcus aureus ATCC®6538, Candida albicans ATCC®10231, and Aspergillus brasiliensis ATCC®16404.
# (§6) Table 2 Conservation efficacy testing of a typical cosmetic oil-water-emulsion at pH 5-6 supplemented with sodium perillate using five classical microbial test strains. All formulations were inoculated with a defined cell concentration and incubated over a time of 28 days at room temperature under standardized conditions. After 7, 14, 21 and 28 days samples were taken and the colony forming units (cfu) were calculated.
# [7] = system: Candida albicans ATCC®10231; experiment: as above; format: cell-based; conditions: O/W emulsion pH 5-6, room temperature
# Procedure: as §3, §4, §5, §6
# [8] = system: Escherichia coli ATCC®8739; experiment: as above; format: cell-based; conditions: O/W emulsion pH 5-6, room temperature
# Procedure: as §3, §4, §5, §6
# [9] = system: Pseudomonas aeruginosa ATCC®9027; experiment: as above; format: cell-based; conditions: O/W emulsion pH 5-6, room temperature
# Procedure: as §3, §4, §5, §6
# [10] = system: Staphylococcus aureus ATCC®6538; experiment: as above; format: cell-based; conditions: O/W emulsion pH 5-6, room temperature
# Procedure: as §3, §4, §5, §6
# [11] = system: Asaia sp.; experiment: Conservation efficacy testing in aqueous formulation (juice matrix); format: cell-based; conditions: aqueous formulation (juice matrix) pH 2.5-4, room temperature
# Procedure: as §3, §4
# (§7) Among others the following species were used to determine the efficacy of sodium perillate in a water-based glucose formulation: Saccharomyces sp., Schizosaccharomyces sp., Asaia sp., Lactobacillus sp., and Aspergillus sp.
# (§8) Table 3 Illustration of cell reduction using sodium perillate in a typical aqueous formulation (juice matrix) for beverages pH 2.5-4 supplemented with sodium perillate. Conservation efficacy testing was performed using five microbial test strains: Saccharomyces sp., Schizosaccharomyces sp., Asaia sp., Lactobacillus sp., and Aspergillus sp. All formulations were inoculated with a defined cell concentration and incubated at room temperature under standardized conditions. After 7, 14, 21 and 28 days samples were taken and the colony forming units (cfu) were calculated and shown here.
# [12] = system: Aspergillus sp.; experiment: as above; format: cell-based; conditions: aqueous formulation (juice matrix) pH 2.5-4, room temperature
# Procedure: as §3, §4, §7, §8
# [13] = system: Lactobacillus sp.; experiment: as above; format: cell-based; conditions: aqueous formulation (juice matrix) pH 2.5-4, room temperature
# Procedure: as §3, §4, §7, §8
# [14] = system: Saccharomyces sp.; experiment: as above; format: cell-based; conditions: aqueous formulation (juice matrix) pH 2.5-4, room temperature
# Procedure: as §3, §4, §7, §8
# [15] = system: Schizosaccharomyces sp.; experiment: as above; format: cell-based; conditions: aqueous formulation (juice matrix) pH 2.5-4, room temperature
# Procedure: as §3, §4, §7, §8
# [16] = Stability investigation of sodium perillate on storage (TLC, GC, HPLC recovery); format: physicochemical; conditions: stored 12 months at 4° C., 22-25° C. and 50° C., gas and liquid chromatography
# Procedure: Sodium perillate was prepared by adding a defined volume of a 0.1 M sodium hydroxide (NaOH) solution to perillic acid to give an aqueous solution of pH 7.0. The water was removed by evaporation resulting in a colorless solid. In order to investigate the stability of sodium perillate, the compound was stored for 12 months at 4° C., 22-25° C. (resemble room temperature) and 50° C. At certain time intervals all samples were examined and evaluated qualitatively using thin layer chromatography and quantitatively using gas and liquid chromatography. The results were compared to the stability of R perillic acid. […] These experiments highlight the long-term stability of sodium perillate.
# Table 5 Recovery of sodium perillate measured by liquid chromatography (HPLC). Column: Phenomenex Luna 018. Method: 70% acetonitrile and 30% water, isocratic. Recovery values were calculated according to a calibration curve performed with sodium perillate in the range of 0.05-2 mM in acetonitrile. Detection was carried out by UV-light (DAD-detector) at 217 and 240 nm.
# [17] = Solubility in water-based systems; format: physicochemical; conditions: neutral pH; compared to the free perillic acid
# [18] = pKa; format: physicochemical; conditions: weak acid of which sodium perillate is the salt
smiles,measurement,setting,value
"C=C(C)C1CC=C(C(=O)[O-])CC1.[Na+] (stereo not drawn) [Sodium perillate, sodium perillate]",MIC,[1],D (D<0.1% w/v)
same,MIC,[2]; pH <6.5,D (D<0.1% w/v)
same,MIC,[2]; pH >7.5,C (C=0.1-0.5% w/v)
same,MIC,[3]; pH <6.5,C (C=0.1-0.5% w/v)
same,MIC,[3]; pH >7.5,B (B=0.5-1% w/v)
same,MIC,[4]; pH <6.5,B (B=0.5-1% w/v)
same,MIC,[4]; pH >7.5,A (A>1% w/v)
same,MIC,[5]; pH <6.5,D (D<0.1% w/v)
same,MIC,[5]; pH >7.5,B (B=0.5-1% w/v)
same,Reduced log-steps After T28,[6]; after 28 days,2 log-steps
same,CFU/mL at Sampling Timepoint T0,[6]; day 0,"11,000 CFU/mL"
same,CFU/mL at Sampling Timepoint T7,[6]; day 7,"13,000 CFU/mL"
same,CFU/mL at Sampling Timepoint T14,[6]; day 14,"2,270 CFU/mL"
same,CFU/mL at Sampling Timepoint T21,[6]; day 21,"2,900 CFU/mL"
same,CFU/mL at Sampling Timepoint T28,[6]; day 28,170 CFU/mL
same,Reduced log-steps After T28,[7]; after 28 days,2 log-steps
same,CFU/mL at Sampling Timepoint T0,[7]; day 0,"68,000 CFU/mL"
same,CFU/mL at Sampling Timepoint T7,[7]; day 7,"8,260 CFU/mL"
same,CFU/mL at Sampling Timepoint T14,[7]; day 14,"1,925 CFU/mL"
same,CFU/mL at Sampling Timepoint T21,[7]; day 21,"4,100 CFU/mL"
same,CFU/mL at Sampling Timepoint T28,[7]; day 28,630 CFU/mL
same,Reduced log-steps After T28,[8]; after 28 days,3 log-steps
same,CFU/mL at Sampling Timepoint T0,[8]; day 0,"1,680,000 CFU/mL"
same,CFU/mL at Sampling Timepoint T7,[8]; day 7,"53,500 CFU/mL"
same,CFU/mL at Sampling Timepoint T14,[8]; day 14,190 CFU/mL
same,CFU/mL at Sampling Timepoint T21,[8]; day 21,370 CFU/mL
same,CFU/mL at Sampling Timepoint T28,[8]; day 28,"1,430 CFU/mL"
same,Reduced log-steps After T28,[9]; after 28 days,3 log-steps
same,CFU/mL at Sampling Timepoint T0,[9]; day 0,"580,000 CFU/mL"
same,CFU/mL at Sampling Timepoint T7,[9]; day 7,"45,000 CFU/mL"
same,CFU/mL at Sampling Timepoint T14,[9]; day 14,"11,500 CFU/mL"
same,CFU/mL at Sampling Timepoint T21,[9]; day 21,805 CFU/mL
same,CFU/mL at Sampling Timepoint T28,[9]; day 28,235 CFU/mL
same,Reduced log-steps After T28,[10]; after 28 days,6 log-steps
same,CFU/mL at Sampling Timepoint T0,[10]; day 0,"130,000 CFU/mL"
same,CFU/mL at Sampling Timepoint T7,[10]; day 7,0 CFU/mL
same,CFU/mL at Sampling Timepoint T14,[10]; day 14,0 CFU/mL
same,CFU/mL at Sampling Timepoint T21,[10]; day 21,0 CFU/mL
same,CFU/mL at Sampling Timepoint T28,[10]; day 28,0 CFU/mL
same,CFU/mL at Sampling Timepoint T0,[11]; day 0,45 CFU/mL
same,CFU/mL at Sampling Timepoint T7,[11]; day 7,"17,250 CFU/mL"
same,CFU/mL at Sampling Timepoint T14,[11]; day 14,"8,940 CFU/mL"
same,CFU/mL at Sampling Timepoint T21,[11]; day 21,725 CFU/mL
same,CFU/mL at Sampling Timepoint T28,[11]; day 28,685 CFU/mL
same,CFU/mL at Sampling Timepoint T0,[12]; day 0,10 CFU/mL
same,CFU/mL at Sampling Timepoint T7,[12]; day 7,0 CFU/mL
same,CFU/mL at Sampling Timepoint T14,[12]; day 14,0 CFU/mL
same,CFU/mL at Sampling Timepoint T21,[12]; day 21,0 CFU/mL
same,CFU/mL at Sampling Timepoint T28,[12]; day 28,0 CFU/mL
same,CFU/mL at Sampling Timepoint T0,[13]; day 0,10 CFU/mL
same,CFU/mL at Sampling Timepoint T7,[13]; day 7,10 CFU/mL
same,CFU/mL at Sampling Timepoint T14,[13]; day 14,56 CFU/mL
same,CFU/mL at Sampling Timepoint T21,[13]; day 21,340 CFU/mL
same,CFU/mL at Sampling Timepoint T28,[13]; day 28,910 CFU/mL
same,CFU/mL at Sampling Timepoint T0,[14]; day 0,10 CFU/mL
same,CFU/mL at Sampling Timepoint T7,[14]; day 7,"23,900 CFU/mL"
same,CFU/mL at Sampling Timepoint T14,[14]; day 14,"52,900 CFU/mL"
same,CFU/mL at Sampling Timepoint T21,[14]; day 21,"530,000 CFU/mL"
same,CFU/mL at Sampling Timepoint T28,[14]; day 28,"470,000 CFU/mL"
same,CFU/mL at Sampling Timepoint T0,[15]; day 0,55 CFU/mL
same,CFU/mL at Sampling Timepoint T7,[15]; day 7,350 CFU/mL
same,CFU/mL at Sampling Timepoint T14,[15]; day 14,"3,265 CFU/mL"
same,CFU/mL at Sampling Timepoint T21,[15]; day 21,"4,990 CFU/mL"
same,Degradation products detected,[16],no degradation products
same,Solubility in water-based systems,[17],higher solubility
C=C(C)[C@@H]1CC=C(C(=O)O)CC1 [perillic acid],pKa,[18],4.96

# From patent publication US11297835B2, “Aqueous compositions of perillic acid compounds” (B.R.A.I.N. BIOTECHNOLOGY RESEARCH AND INFORMATION NETWORK AG, priority 2016, dated 2022)
